Test results as given in US20210045385A1, “PYRIDAZINONE-SUBSTITUTED KETOXIMES AS HERBICIDES” (FMC Corporation, priority 2018, published 2021).

Tests used:
Format in all cases: in vivo
[1] = test system: ducksalad (Heteranhera limosa); assay: Test B flooded paddy test, visual plant response rating; conditions: 250 g ai/ha, Flood, applied to paddy water, 2-leaf stage, evaluated after 13 to 15 days
In short: (§1)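 2-leaf plants; pots flooded 3 cm over soil surface; compound dosed straight into the floodwater; depth kept constant; greenhouse 13–15 d; visual rating vs. untreated controls.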

[2] = test system: barnyardgrass (Echinochloa crus-galli); assay: as above; conditions: 250 g ai/ha, Flood, applied to paddy water, 2-leaf stage, evaluated after 13 to 15 days
In short: as §1

rice (Oryza sativa) = assay: as above; conditions: 250 g ai/ha, Flood, applied to paddy water, 2-leaf stage, evaluated after 13 to 15 days
In short: as §1

[3] = test system: sedge, umbrella (small-flower umbrella sedge, Cyperus difformis); assay: as above; conditions: 250 g ai/ha, Flood, applied to paddy water, 2-leaf stage, evaluated after 13 to 15 days
In short: as §1

[4] = test system: Italian ryegrass (Lolium multiflorum); assay: Test A preemergence, visual plant response rating; conditions: for Ryegrass, Italian plant response rating (0 to 100 scale): approx. 10 days
In short: (§2)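 Formulated in a non-phytotoxic solvent mixture including surfactant, each test chemical was sprayed onto the soil surface after sowing, or onto seedlings 2 to 10 cm high. Roughly 10 days later, plants were compared with untreated controls and rated for injury from 0 (no effect) to 100 (complete control).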

[5] = test system: barnyardgrass (Echinochloa crus-galli); assay: Test A preemergence, visual plant response rating; conditions: for Barnyardgrass plant response rating (0 to 100 scale): approx. 10 days
In short: as §2

[6] = test system: foxtail, giant (giant foxtail, Setaria faberii); assay: Test A preemergence, visual plant response rating; conditions: for Foxtail, Giant plant response rating (0 to 100 scale): approx. 10 days
In short: as §2

[7] = test system: ragweed (common ragweed, Ambrosia elatior); assay: Test A preemergence, visual plant response rating; conditions: for Ragweed plant response rating (0 to 100 scale): approx. 10 days
In short: as §2

kochia (Kochia scoparia) [8] = assay: Test A preemergence, visual plant response rating; conditions: for Kochia plant response rating (0 to 100 scale): approx. 10 days
In short: as §2

[9] = test system: pigweed (Amaranthus retroflexus); assay: Test A preemergence, visual plant response rating; conditions: for Pigweed plant response rating (0 to 100 scale): approx. 10 days
In short: as §2

[10] = test system: Italian ryegrass (Lolium multiflorum); assay: Test A postemergence, visual plant response rating; conditions: for Ryegrass, Italian plant response rating (0 to 100 scale): 500 g ai/ha, postemergence, 0 is no effect, 100 is complete control; for Ryegrass, Italian plant response rating: Postemergence, 125 g ai/ha, 0 to 100 scale (0 no effect, 100 complete control)
In short: as §2

corn (Zea mays) = assay: Test A postemergence, visual plant response rating; conditions: for Corn plant response rating (0 to 100 scale): 500 g ai/ha, postemergence, 0 is no effect, 100 is complete control; for Corn plant response rating: Postemergence, 125 g ai/ha, 0 to 100 scale (0 no effect, 100 complete control)
In short: as §2

[11] = test system: galium (catchweed bedstraw, Galium aparine); assay: Test A postemergence, visual plant response rating; conditions: for Galium plant response rating (0 to 100 scale): 500 g ai/ha, postemergence, 0 is no effect, 100 is complete control; for Galium plant response rating: Postemergence, 125 g ai/ha, 0 to 100 scale (0 no effect, 100 complete control)
In short: as §2

[12] = test system: barnyardgrass (Echinochloa crus-galli); assay: Test A postemergence, visual plant response rating; conditions: for Barnyardgrass plant response rating (0 to 100 scale): 500 g ai/ha, postemergence, 0 is no effect, 100 is complete control; for Barnyardgrass plant response rating: Postemergence, 125 g ai/ha, 0 to 100 scale (0 no effect, 100 complete control)
In short: as §2

[13] = test system: foxtail, giant (giant foxtail, Setaria faberii); assay: Test A postemergence, visual plant response rating; conditions: for Foxtail, Giant plant response rating (0 to 100 scale): 500 g ai/ha, postemergence, 0 is no effect, 100 is complete control; for Foxtail, Giant plant response rating: Postemergence, 125 g ai/ha, 0 to 100 scale (0 no effect, 100 complete control)
In short: as §2

[14] = test system: wheat (Triticum aestivum); assay: Test A postemergence, visual plant response rating; conditions: for Wheat plant response rating (0 to 100 scale): 500 g ai/ha, postemergence, 0 is no effect, 100 is complete control; for Wheat plant response rating: Postemergence, 125 g ai/ha, 0 to 100 scale (0 no effect, 100 complete control)
In short: as §2

[15] = test system: blackgrass (Alopecurus myosuroides); assay: Test A postemergence, visual plant response rating; conditions: for Blackgrass plant response rating (0 to 100 scale): 500 g ai/ha, postemergence, 0 is no effect, 100 is complete control; for Blackgrass plant response rating: Postemergence, 125 g ai/ha, 0 to 100 scale (0 no effect, 100 complete control)
In short: as §2

[16] = test system: ragweed (common ragweed, Ambrosia elatior); assay: Test A postemergence, visual plant response rating; conditions: for Ragweed plant response rating (0 to 100 scale): 500 g ai/ha, postemergence, 0 is no effect, 100 is complete control; for Ragweed plant response rating: Postemergence, 125 g ai/ha, 0 to 100 scale (0 no effect, 100 complete control)
In short: as §2

kochia (Kochia scoparia) [17] = assay: Test A postemergence, visual plant response rating; conditions: for Kochia plant response rating (0 to 100 scale): 500 g ai/ha, postemergence, 0 is no effect, 100 is complete control; for Kochia plant response rating: Postemergence, 125 g ai/ha, 0 to 100 scale (0 no effect, 100 complete control)
In short: as §2

[18] = test system: pigweed (Amaranthus retroflexus); assay: Test A postemergence, visual plant response rating; conditions: for Pigweed plant response rating (0 to 100 scale): 500 g ai/ha, postemergence, 0 is no effect, 100 is complete control; for Pigweed plant response rating: Postemergence, 125 g ai/ha, 0 to 100 scale (0 no effect, 100 complete control)
In short: as §2

[19] = 125 g ai/ha, preemergence, 0 to 100 scale, 0 no effect, 100 complete control

SMILES	Plant response rating, Ducksalad (0 to 100 scale, 0 is no effect, 100 is complete control) [1]	Plant response rating, Barnyardgrass (0 to 100 scale, 0 is no effect, 100 is complete control) [2]	Plant response rating, Rice (0 to 100 scale, 0 is no effect, 100 is complete control) (rice (Oryza sativa))	Plant response rating, Sedge, Umbrella (0 to 100 scale, 0 is no effect, 100 is complete control) [3]	Ryegrass, Italian plant response rating (0 to 100 scale) ([4]; 500 g ai/ha Preemergence)	Barnyardgrass plant response rating (0 to 100 scale) ([5]; 500 g ai/ha Preemergence)	Foxtail, Giant plant response rating (0 to 100 scale) ([6]; 500 g ai/ha Preemergence)	Ragweed plant response rating (0 to 100 scale) ([7]; 500 g ai/ha Preemergence)	Kochia plant response rating (0 to 100 scale) (kochia (Kochia scoparia) [8]; 500 g ai/ha Preemergence)	Pigweed plant response rating (0 to 100 scale) ([9]; 500 g ai/ha Preemergence)	Ryegrass, Italian plant response rating (0 to 100 scale) [10]	Ryegrass, Italian plant response rating [10]	Corn plant response rating (0 to 100 scale) (corn (Zea mays))	Corn plant response rating (corn (Zea mays))	Galium plant response rating (0 to 100 scale) [11]	Galium plant response rating [11]	Barnyardgrass plant response rating (0 to 100 scale) [12]	Barnyardgrass plant response rating [12]	Foxtail, Giant plant response rating (0 to 100 scale) [13]	Foxtail, Giant plant response rating [13]	other results
CON=C(c1cccc(Cl)c1)c1c(O)c(C)nn(C2CC2)c1=O (mixture of isomers) [Compound 33]	0	0	0	0	60	0	0	20	10	70	60	10	0	0	70	40	0	0	10	0	Ryegrass, Italian plant response rating (0 to 100 scale) ([4]; 125 g ai/ha Preemergence): 20; Barnyardgrass plant response rating (0 to 100 scale) ([5]; 125 g ai/ha Preemergence): 0; Foxtail, Giant plant response rating (0 to 100 scale) ([6]; 125 g ai/ha Preemergence): 0; Ragweed plant response rating (0 to 100 scale) ([7]; 125 g ai/ha Preemergence): 0; Kochia plant response rating (0 to 100 scale) (kochia (Kochia scoparia) [8]; 125 g ai/ha Preemergence): 0; Pigweed plant response rating (0 to 100 scale) ([9]; 125 g ai/ha Preemergence): 0; Wheat plant response rating (0 to 100 scale) [14]: 20; Wheat plant response rating [14]: 0; Blackgrass plant response rating (0 to 100 scale) [15]: 0; Blackgrass plant response rating [15]: 0; Ragweed plant response rating (0 to 100 scale) [16]: 60; Ragweed plant response rating [16]: 10; Kochia plant response rating (0 to 100 scale) (kochia (Kochia scoparia) [17]): 40; Kochia plant response rating (kochia (Kochia scoparia) [17]): 20; Pigweed plant response rating (0 to 100 scale) [18]: 30; Pigweed plant response rating [18]: 10
C=CCON=C(c1c(O)c(C)nn(C)c1=O)c1cc(Br)cc2ccccc12 [Compound 114]	85	70	35	85	100	100	100	90	20	80	90	80	80	20	100	100	90	80	90	90	Ryegrass, Italian plant response rating [4, 19]: 70; Barnyardgrass plant response rating [5, 19]: 90; Foxtail, Giant plant response rating [6, 19]: 100; Ragweed plant response rating [7, 19]: 80; Kochia plant response rating (kochia (Kochia scoparia) [8]; [19]): 10; Pigweed plant response rating [9, 19]: 10; Wheat plant response rating (0 to 100 scale) [14]: 50; Wheat plant response rating [14]: 0; Blackgrass plant response rating (0 to 100 scale) [15]: 90; Blackgrass plant response rating [15]: 80; Ragweed plant response rating (0 to 100 scale) [16]: 100; Ragweed plant response rating [16]: 90; Kochia plant response rating (0 to 100 scale) (kochia (Kochia scoparia) [17]): 40; Kochia plant response rating (kochia (Kochia scoparia) [17]): 30; Pigweed plant response rating (0 to 100 scale) [18]: 90; Pigweed plant response rating [18]: 70
